{"source": "patent US8071531B2", "about": "“Flavor and fragrance composition” (Takasgo International Corporation, priority 2006, dated 2011)", "assay": "Oral sensory evaluation of an aqueous solution by seven expert panelists", "format": "in vivo", "protocol": "Oral evaluation of an aqueous solution of (1R,2R,4R)-1-(2-hydroxy-4-methylcyclohexyl)ethanone obtained in Synthesis Example 1 was carried out by seven expert panelists."}
{"smiles": "CC(=O)[C@@H]1CC[C@@H](C)C[C@H]1O", "note": "[(1R,2R,4R)-1-(2-hydroxy-4-methylcyclohexyl)ethanone]", "values": [{"measurement": "appearance of refreshing feeling and taste", "setting": "aqueous solution, oral evaluation", "value": "relatively rapid with clear refreshing feeling without unpleasant taste"}, {"measurement": "Cool and refreshing feeling of the aqueous solution, equivalent concentration of menthol", "setting": "at a concentration of 50 ppm in aqueous solution", "value": 10, "unit": "ppm"}]}
